Patent publication US8952024B2, “Herbicidal pyrimidone derivatives” (E I du Pont de Nemours and Company, priority 2009, dated 2015)
Read-outs that look alike come from different tables or passages of the source.

What was measured:
Format in all cases: in vivo
[1] = tested on: pigweed (Amaranthus retroflexus); experiment: Test A pre-/postemergence plant response; conditions: Amaranthus retroflexus, 240 h, read-out: Plant response rating, Pigweed; for pest or weed control at 125 g/ha: 125 g ai/ha; for pest or weed control at 500 g/ha: 500 g ai/ha, approx. ten days
How it was run: (§1)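 Injury scores (0, no effect; 100, complete control) come from visual comparison with untreated controls roughly ten days post-treatment. Test chemicals in a surfactant-containing non-phytotoxic solvent were applied as a directed soil spray preemergence and to one- to two-leaf seedlings postemergence.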

[2] = tested on: giant foxtail (Setaria faberii); experiment: Test A pre-/postemergence plant response; conditions: Setaria faberi, 240 h, read-out: Plant response rating, Foxtail, Giant; for pest or weed control at 125 g/ha: 125 g ai/ha; for pest or weed control at 500 g/ha: 500 g ai/ha, approx. ten days
How it was run: as §1

corn (Zea mays) = experiment: Test A pre-/postemergence plant response; conditions: Zea mays, 240 h; for Corn plant response rating (crop injury, 0 = no effect, 100 = complete kill) at 125 g/ha: 125 g ai/ha; for Corn plant response rating (crop injury, 0 = no effect, 100 = complete kill) at 500 g/ha: 500 g ai/ha, approx. ten days
How it was run: as §1

[3] = tested on: barnyardgrass (Echinochloa crus-galli); experiment: Test A pre-/postemergence plant response; conditions: Echinochloa crus-galli, 240 h, read-out: Plant response rating, Barnyardgrass; for pest or weed control at 125 g/ha: 125 g ai/ha; for pest or weed control at 500 g/ha: 500 g ai/ha, approx. ten days
How it was run: as §1

[4] = tested on: morningglory (Ipomoea spp.); experiment: Test A pre-/postemergence plant response; conditions: Ipomoea, 240 h, read-out: Plant response rating, Morningglory; for pest or weed control at 125 g/ha: 125 g ai/ha; for pest or weed control at 500 g/ha: 500 g ai/ha, approx. ten days
How it was run: as §1

[5] = tested on: wheat (Triticum aestivum); experiment: Test A pre-/postemergence plant response; conditions: Triticum aestivum, 240 h, read-out: Plant response rating, Wheat; for plant injury at 125 g/ha: 125 g ai/ha; for plant injury at 500 g/ha: 500 g ai/ha, approx. ten days
How it was run: as §1

[6] = tested on: large crabgrass (Digitaria sanguinalis); experiment: Test A pre-/postemergence plant response; conditions: Digitaria sanguinalis, 240 h, read-out: Plant response rating, Crabgrass, Large; for pest or weed control at 125 g/ha: 125 g ai/ha; for pest or weed control at 500 g/ha: 500 g ai/ha, approx. ten days
How it was run: as §1

[7] = tested on: velvetleaf (Abutilon theophrasti); experiment: Test A pre-/postemergence plant response; conditions: Abutilon theophrasti, 240 h, read-out: Plant response rating, Velvetleaf; for pest or weed control at 125 g/ha: 125 g ai/ha; for pest or weed control at 500 g/ha: 500 g ai/ha, approx. ten days
How it was run: as §1

[8] = tested on: bermudagrass (Cynodon dactylon); experiment: Test B pre-/postemergence plant response; conditions: for pest or weed control at 31 g/ha: 31 g ai/ha; for pest or weed control at 125 g/ha: 125 g ai/ha
How it was run: (§2)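 Steps: sow seed in loam–sand soil and spray preemergence, or grow plants in peat-based medium to 1–4 leaves (2–18 cm) and spray postemergence; formulation is non-phytotoxic solvent plus surfactant; hold in greenhouse 13–15 days; score visually vs controls, 0 = no effect, 100 = complete control.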

[9] = tested on: cocklebur (Xanthium strumarium); experiment: Test B pre-/postemergence plant response; conditions: for pest or weed control at 31 g/ha: 31 g ai/ha; for pest or weed control at 125 g/ha: 125 g ai/ha
How it was run: as §2

[10] = tested on: wheat (Triticum aestivum); experiment: Test B pre-/postemergence plant response; conditions: for plant injury at 31 g/ha: 31 g ai/ha; for plant injury at 125 g/ha: 125 g ai/ha
How it was run: as §2

[11] = post-emergence, Postemergence, 0 to 100 scale where 0 is no effect and 100 is complete control
[12] = post-emergence, Postemergence, 0 to 100 scale, 0 = no effect, 100 = complete control
[13] = pre-emergence, Preemergence, 0 to 100 scale, 0 = no effect, 100 = complete control
[14] = pre-emergence, Preemergence, visual injury, 0 to 100 scale (0 no effect, 100 complete control)
[15] = 62 g ai/ha, postemergence, 0 is no effect, 100 is complete control, 13 to 15 days
[16] = Preemergence, 250 g ai/ha, 0 to 100 scale

Compound: COCCCn1c(-c2ccccc2)ncc(C(=O)C2=C(O)CCCC2=O)c1=O [Compound 81, 5-[(2-hydroxy-6-oxo-cyclohexen-1-yl)carbonyl]-3-(3-methoxypropyl)-2-phenyl-4(3H)-pyrimidinone]
- pest or weed control at 125 g/ha [1, 11]: 100%
- pest or weed control at 500 g/ha [1, 12]: 100%
- pest or weed control at 125 g/ha [1, 13]: 100%
- pest or weed control at 500 g/ha [1, 14]: 100%
- pest or weed control at 125 g/ha [2, 11]: 80%
- pest or weed control at 500 g/ha [2, 12]: 90%
- pest or weed control at 125 g/ha [2, 13]: 30%
- pest or weed control at 500 g/ha [2, 14]: 80%
- Corn plant response rating (crop injury, 0 = no effect, 100 = complete kill) at 125 g/ha (corn (Zea mays); [11]): 10%
- Corn plant response rating (crop injury, 0 = no effect, 100 = complete kill) at 500 g/ha (corn (Zea mays); [12]): 70%
- Corn plant response rating (crop injury, 0 = no effect, 100 = complete kill) at 125 g/ha (corn (Zea mays); [13]): 0%
- Corn plant response rating (crop injury, 0 = no effect, 100 = complete kill) at 500 g/ha (corn (Zea mays); [14]): 0%
- pest or weed control at 125 g/ha [3, 11]: 100%
- pest or weed control at 500 g/ha [3, 12]: 100%
- pest or weed control at 125 g/ha [3, 13]: 50%
- pest or weed control at 500 g/ha [3, 14]: 90%
- pest or weed control at 125 g/ha [4, 11]: 90%
- pest or weed control at 500 g/ha [4, 12]: 100%
- pest or weed control at 125 g/ha [4, 13]: 0%
- pest or weed control at 500 g/ha [4, 14]: 70%
- plant injury at 125 g/ha [5, 11]: 0%
- plant injury at 500 g/ha [5, 12]: 30%
- plant injury at 125 g/ha [5, 13]: 0%
- plant injury at 500 g/ha [5, 14]: 20%
- pest or weed control at 125 g/ha [6, 11]: 90%
- pest or weed control at 500 g/ha [6, 12]: 90%
- pest or weed control at 125 g/ha [6, 13]: 90%
- pest or weed control at 500 g/ha [6, 14]: 100%
- pest or weed control at 125 g/ha [7, 11]: 100%
- pest or weed control at 500 g/ha [7, 12]: 100%
- pest or weed control at 125 g/ha [7, 13]: 100%
- pest or weed control at 500 g/ha [7, 14]: 100%
- Bermudagrass plant response rating (0 to 100 scale) [8, 15]: 85
- pest or weed control at 31 g/ha ([8]; Cynodon dactylon, post-emergence, postemergence, scale 0 to 100, 0 is no effect, 100 is complete control, read-out: Plant response rating, Bermudagrass): 85%
- pest or weed control at 125 g/ha ([8]; Cynodon dactylon, post-emergence, Postemergence, visual rating after 13 to 15 days, scale 0 (no effect) to 100 (complete control)): 95%
- pest or weed control at 250 g/ha ([8]; Cynodon dactylon, post-emergence, Postemergence, 250 g ai/ha, scale 0 to 100 (0 no effect, 100 complete control), read-out: Plant response rating, Bermudagrass): 95%
- pest or weed control at 31 g/ha ([8]; Cynodon dactylon, pre-emergence, Preemergence, scale 0 to 100 (0 no effect, 100 complete control), read-out: Plant response rating, Bermudagrass): 100%
- pest or weed control at 62 g/ha ([8]; Cynodon dactylon, pre-emergence, Preemergence, 62 g ai/ha, scale 0 to 100, 0 no effect, 100 complete control, read-out: Plant response rating, Bermudagrass): 100%
- pest or weed control at 125 g/ha ([8]; Cynodon dactylon, pre-emergence, Preemergence, scale 0 to 100, 0 no effect, 100 complete control, read-out: Plant response rating, Bermudagrass): 100%
- Bermudagrass plant response rating ([8]; Preemergence, 250 g ai/ha, 0 to 100 scale, 0 no effect, 100 complete control): 100
- Cocklebur plant response rating (0 to 100 scale) [9, 15]: 55
- Cocklebur plant response rating [9, 16]: 85
- pest or weed control at 31 g/ha ([9]; Xanthium strumarium, post-emergence, postemergence, scale 0 to 100, 0 is no effect, 100 is complete control, read-out: Plant response rating, Cocklebur): 5%
- pest or weed control at 125 g/ha ([9]; Xanthium strumarium, post-emergence, Postemergence, visual rating after 13 to 15 days, scale 0 (no effect) to 100 (complete control)): 65%
- pest or weed control at 250 g/ha ([9]; Xanthium strumarium, post-emergence, Postemergence, 250 g ai/ha, scale 0 to 100 (0 no effect, 100 complete control), read-out: Plant response rating, Cocklebur): 90%
- pest or weed control at 31 g/ha ([9]; Xanthium strumarium, pre-emergence, Preemergence, scale 0 to 100 (0 no effect, 100 complete control), read-out: Plant response rating, Cocklebur): 0%
- pest or weed control at 62 g/ha ([9]; Xanthium strumarium, pre-emergence, Preemergence, 62 g ai/ha, scale 0 to 100, 0 no effect, 100 complete control, read-out: Plant response rating, Cocklebur): 10%
- pest or weed control at 125 g/ha ([9]; Xanthium strumarium, pre-emergence, Preemergence, scale 0 to 100, 0 no effect, 100 complete control, read-out: Plant response rating, Cocklebur): 75%
- Wheat plant response rating (0 to 100 scale) [10, 15]: 20
- Wheat plant response rating [10, 16]: 0
- plant injury at 31 g/ha ([10]; Triticum aestivum, post-emergence, postemergence, scale 0 to 100, 0 is no effect, 100 is complete control, read-out: Plant response rating, Wheat): 5%
- plant injury at 125 g/ha ([10]; Triticum aestivum, post-emergence, Postemergence, visual rating after 13 to 15 days, scale 0 (no effect) to 100 (complete control)): 25%
- plant injury at 250 g/ha ([10]; Triticum aestivum, post-emergence, Postemergence, 250 g ai/ha, scale 0 to 100 (0 no effect, 100 complete control), read-out: Plant response rating, Wheat): 25%
- plant injury at 31 g/ha ([10]; Triticum aestivum, pre-emergence, Preemergence, scale 0 to 100 (0 no effect, 100 complete control), read-out: Plant response rating, Wheat): 0%
- plant injury at 62 g/ha ([10]; Triticum aestivum, pre-emergence, Preemergence, 62 g ai/ha, scale 0 to 100 (0 no effect, 100 complete control), read-out: Plant response rating, Wheat): 0%
- plant injury at 125 g/ha ([10]; Triticum aestivum, pre-emergence, Preemergence, scale 0 to 100, 0 no effect, 100 complete control, read-out: Plant response rating, Wheat): 0%
